Experimental data as given in patent US8563542B2 (Cyclacel Limited, priority 2007, dated 2013).

How the values were obtained:
[1] = biological target: T1, AA (Homo sapiens, UniProt O14965); experiment: AA IC50 (Table 1; no method given); assay type: biochemical; settings: Table 2, AurA IC50; class symbols; read-out: AurA IC50
T1 sequence (O14965 1-403): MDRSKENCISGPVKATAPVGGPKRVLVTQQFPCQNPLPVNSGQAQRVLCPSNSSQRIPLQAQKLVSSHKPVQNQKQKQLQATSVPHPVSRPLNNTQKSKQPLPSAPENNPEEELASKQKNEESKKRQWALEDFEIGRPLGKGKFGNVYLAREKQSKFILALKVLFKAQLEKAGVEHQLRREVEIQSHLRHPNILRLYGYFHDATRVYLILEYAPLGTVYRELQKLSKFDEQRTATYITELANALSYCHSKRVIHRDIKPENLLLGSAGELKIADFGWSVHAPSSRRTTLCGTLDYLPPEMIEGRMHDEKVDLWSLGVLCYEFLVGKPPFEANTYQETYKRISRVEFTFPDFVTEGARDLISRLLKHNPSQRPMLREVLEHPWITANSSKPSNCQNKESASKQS

[2] = biological target: PLK1 (Homo sapiens, UniProt P53350); experiment: PLK1 protein kinase assay (CDC25C phosphorylation, [γ-32P]-ATP); assay type: biochemical; settings: Table 2, PLK1 IC50; class symbols; read-out: PLK1 IC50
Chain of PLK1 (P53350 whole entry): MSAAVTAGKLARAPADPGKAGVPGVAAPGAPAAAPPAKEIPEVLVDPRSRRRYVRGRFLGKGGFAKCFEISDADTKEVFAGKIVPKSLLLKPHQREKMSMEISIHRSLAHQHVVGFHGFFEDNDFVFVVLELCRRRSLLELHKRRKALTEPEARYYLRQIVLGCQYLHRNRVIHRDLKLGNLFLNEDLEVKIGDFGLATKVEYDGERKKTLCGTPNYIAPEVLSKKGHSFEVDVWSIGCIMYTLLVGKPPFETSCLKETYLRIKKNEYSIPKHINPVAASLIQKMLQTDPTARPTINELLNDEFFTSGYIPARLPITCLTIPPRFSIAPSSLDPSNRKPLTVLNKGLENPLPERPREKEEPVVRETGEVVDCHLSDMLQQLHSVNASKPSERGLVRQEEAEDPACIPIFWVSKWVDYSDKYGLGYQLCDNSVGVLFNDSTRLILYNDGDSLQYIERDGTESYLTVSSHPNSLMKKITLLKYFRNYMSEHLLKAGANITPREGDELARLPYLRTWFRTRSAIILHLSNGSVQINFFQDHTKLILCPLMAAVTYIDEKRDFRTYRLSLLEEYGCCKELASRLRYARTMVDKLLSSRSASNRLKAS

Compound	IC50 [1]	IC50 [2]
CN1CCC(NC(=O)c2ccc(Nc3ncc4c(n3)N(C3CCCC3)CCC(=O)N4C)c(F)c2)CC1 [compound 215, 4-(9-Cyclopentyl-5-methyl-6-oxo-6,7,8,9-tetrahydro-5H-pyrimido[4,5-b][1,4]diazepin-2-ylamino)-3-fluoro-N-(1-methyl-piperidin-4-yl)-benzamide]	< 10000 nM	< 0.1 µM
CN1C(=O)C2(CC2)CN(C2CCCC2)c2nc(Nc3ccc4[nH]ncc4c3)ncc21 [compound 227, 9-Cyclopentyl-2-(1H-indazol-5-ylamino)-5-methyl-5,7,8,9-tetrahydro-pyrimido[4,5-b][1,4]diazepin-3,1′-cyclopropane-6-one]	< 1000 nM	< 0.1 µM
CC(=O)Nc1ccc(Nc2ncc3c(n2)N(C2CCCC2)CCC(=O)N3C)cc1C [compound 285, N-[4-(9-Cyclopentyl-5-methyl-6-oxo-6,7,8,9-tetrahydro-5H-pyrimido[4,5-b][1,4]diazepin-2-ylamino)-2-methyl-phenyl]-acetamide]	< 100 nM	< 10 µM
Cc1cc(Nc2ncc3c(n2)N(C2CCCC2)CCC(=O)N3C)ccc1NC(=O)C(C)(C)C [compound 287, N-[4-(9-Cyclopentyl-5-methyl-6-oxo-6,7,8,9-tetrahydro-5H-pyrimido[4,5-b][1,4]diazepin-2-ylamino)-2-methyl-phenyl]-2,2-dimethyl-propionamide]	< 100 nM	< 10 µM
CN1C(=O)CCN(C2CCCC2)c2nc(Nc3ccc4c(c3)C=CS4(=O)=O)ncc21 [compound 289, 9-Cyclopentyl-2-(1,1-dioxo-1H-1lambda*6*- benzo[b]thiophen-5-ylamino)-5-methyl-5,7,8,9-tetrahydro-pyrimido[4,5-b][1,4]diazepin-6-one]	< 100 nM	< 1 µM
Cc1ccc(N2CCC(=O)N(C)c3cnc(Nc4ccc5c(c4)CS(=O)(=O)C5)nc32)cc1 [compound 290, 2-(2,2-Dioxo-2,3-dihydro-1H-2lambda*6*- benzo[c]thiophen-5-ylamino)-5-methyl-9-p-tolyl-5,7,8,9-tetrahydro-pyrimido[4,5-b][1,4]diazepin-6-one]	< 100 nM	< 10 µM
Cc1ccc(N2CCC(=O)N(C)c3cnc(Nc4ccc(NC(=O)C5CC5)c(C)c4)nc32)cc1 [compound 291, Cyclopropanecarboxylic acid [2-methyl-4-(5-methyl-6-oxo-9-p-tolyl-6,7,8,9-tetrahydro-5H-pyrimido[4,5-b][1,4]diazepin-2-ylamino)-phenyl]-amide]	< 100 nM	< 10 µM
CN1C(=O)CCN(C2CCCC2)c2nc(Nc3ccc4sc(C(=O)O)cc4c3)ncc21 [compound 292, 5-(9-Cyclopentyl-5-methyl-6-oxo-6,7,8,9-tetrahydro-5H-pyrimido[4,5-b][1,4]diazepin-2-ylamino)-benzo[b]thiophene-2-carboxylic acid]	< 100 nM	< 1 µM
CN1C(=O)CCN(C2CCCC2)c2nc(Nc3ccc(C(=O)N4CCOCC4)cc3)ncc21 [compound 293, 9-Cyclopentyl-5-methyl-2-[4-(morpholine-4-carbonyl)-phenylamino]-5,7,8,9-tetrahydro-pyrimido[4,5-b][1,4]diazepin-6-one]	< 100 nM	< 10 µM
CN1C(=O)CCN(C2CCCC2)c2nc(Nc3ccc4c(c3)OCC(=O)N4)ncc21 [compound 294, 9-Cyclopentyl-5-methyl-2-(3-oxo-3,4-dihydro-2H-benzo[1,4]oxazin-7-ylamino)-5,7,8,9-tetrahydro-pyrimido[4,5-b][1,4]diazepin-6-one]	< 1000 nM	< 1 µM
CN1C(=O)CCN(C2CCCC2)c2nc(Nc3ccc4c(c3)NC(=O)CO4)ncc21 [compound 295, 9-Cyclopentyl-5-methyl-2-(3-oxo-3,4-dihydro-2H-benzo[1,4]oxazin-6-ylamino)-5,7,8,9-tetrahydro-pyrimido[4,5-13][1,4]diazepin-6-one]	< 100 nM	< 10 µM
CN1C(=O)CCN(C2CCCC2)c2nc(Nc3ccc4sc(C(=O)O)cc4c3)ncc21 [compound 296]	< 100 nM	< 1 µM
CN1C(=O)CCN(C2CCCC2)c2nc(Nc3ccc(C(=O)N4CCOCC4)cc3)ncc21 [compound 297, 9-Cyclopentyl-5-methyl-2-[4-(morpholine-4-carbonyl)-phenylamino]-5,7,8,9-tetrahydro-pyrimido[4,5-b][1,4]diazepin-6-one]	< 100 nM	< 10 µM
CN1C(=O)CCN(C2CCCC2)c2nc(Nc3ccc4c(c3)OCC(=O)N4)ncc21 [compound 298, 9-Cyclopentyl-5-methyl-2-(3-oxo-3,4-dihydro-2H-benzo[1,4]oxazin-7-ylamino)-5,7,8,9-tetrahydro-pyrimido[4,5-b][1,4]diazepin-6-one]	< 1000 nM	< 1 µM
CN1C(=O)CCN(C2CCCC2)c2nc(Nc3ccc4c(c3)NC(=O)CO4)ncc21 [compound 299, 9-Cyclopentyl-5-methyl-2-(3-oxo-3,4-dihydro-2H-benzo[1,4]oxazin-6-ylarnino)-5,7,8,9-tetrahydro-pyrimido[4,5-b][1,4]diazepin-6-one]	< 100 nM	< 10 µM
CN1C(=O)CCN(C2CCCC2)c2nc(Nc3ccc(S(=O)(=O)N(C)C)cc3)ncc21 [compound 300, 4-(9-Cyclopentyl-5-methyl-6-oxo-6,7,8,9-tetrahydro-5H-pyrimido[4,5-b][1,4]diazepin-2-ylamino)-N,N-dimethyl-benzenesulfonamide]	< 100 nM	< 10 µM
CC(=O)Nc1ccc(Nc2ncc3c(n2)N(C2CCCC2)CCC(=O)N3C)cc1Cl [compound 324, N-[2-Chloro-4-(9-cyclopentyl-5-methyl-6-oxo-6,7,8,9-tetrahydro-5H-pyrimido[4,5-b][1,4]diazepin-2-ylamino)-phenyl]-acetamide]	< 1000 nM	< 10 µM
CN1CCC(NC(=O)c2ccc(Nc3ncc4c(n3)N(C3CCCC3)CC3(CC3)C(=O)N4C)cc2)CC1 [compound 349, 4-(9-Cyclopentyl-5-methyl-6-oxo-6,7,8,9-tetrahydro-5H-spiro[pyrimido[4,5-b][1,4]diazepin-3,1'-cyclopropane]-2-ylamino)-N-(1-methyl-piperidin-4-yl)-benzamide]	< 10000 nM	< 1 µM
